# What was measured:
# [1] = tested on: 4T1.2 cells; assay: Cell viability (acid phosphatase assay) of cancer cells treated with Ivermectin; assay type: cell-based, mouse; conditions: mouse and human breast cancer cells
# Description: Cell viability. Cancer cells were plated on 96 well flat-bottom plates and allowed to attach overnight. Cells were then pre-incubated with drugs for 1 h and treated with Ivermectin for 4 h. In the case of 24 h and 48 h incubations the cells, Ivermectin and drugs were plated together. All treatments and controls were done in triplicate wells and results were validated in at least two independent experiments. Following treatment the plates were washed once with PBS and cell viability was measured using the acid phosphatase assay. Briefly, cells were incubated for 1h at 37° C. in 100 μL assay buffer (0.16 M sodium acetate, 0.1% Triton-X-100, supplemented with 4-Nitrophenyl phosphate disodium salt hexahydrate, Sigma Aldrich, at 0.00263 g/ml). Reaction was stopped using 10 μL of 1N sodium hydroxide. Absorption at 405 nm was measured within 10 min using a multi-well plate reader. Mode of cell death and viability of cells in suspension was evaluated using flow cytometry. Briefly, cancer cells were pre-incubated with drugs for 30 min to 1 h, as indicated, treated with Ivermectin for 4 h in 5 ml FACS tubes , washed twice in PBS and stained with PE-conjugated Annexin V and 7AAD (1 μl per 100 μl/200,000 cancer cells) for 15 min.
# [2] = tested on: Calreticulin (CRT) and Mannose-6 Phosphate receptor; assay: Surface exposure of CRT and Mannose-6 Phosphate receptor; assay type: cell-based, mouse, human
# Description: FIGS. 6A-6E. Ivermectin induces autophagy. FIG. 6A: Ivermectin induces autophagy in breast cancer cells. MDA-MB-231 GFL-LC3 cells were treated with different doses of Ivermectin for 24 h and formation of green fluorescent puncta was evaluated by confocal fluorescence microscopy. FIG. 6B: Western blot confirming the induction of autophagy in both murine and human breast cancer cells, as evidenced by LC3 lipidation and autophagic degradation of p62(SQSTM1). […] MDA-MB-231 cells (triplicates) were treated with different doses of Ivermectin for up to 24h and surface stained with antibody-specific for the human M6P receptor versus isotype control. Similarly, 4T1.2 and MB231 cells were treated with different doses of Ivermectin for 4-24 h, and were stained with an antibody specific for both human and mouse CRT versus isotype control. Mean fluorescent intensity (MFI) values and ratios versus isotype control were calculated after gating on live/membrane-intact cells. […]
# Surface exposure of CRT and Mannose-6 Phosphate receptor. Surface exposure of Calreticulin (CRT) and Mannose-6 Phosphate receptor (CD220) was evaluated by staining with monoclonal antibodies specific for CRT (unconjugated, specific for both mouse and human, Abcam ab22683, and PE-conjugated, specific for human only, Abcam, ab83220) and CD220 (Thermo […]
# [3] = tested on: breast (MCF7), prostate (DU-145), head and neck (A253), and ovarian (SKOV3) cancer cells; assay: Killing of resistant human cancer cell lines by Ivermectin and ATP; assay type: cell-based; conditions: Ivermectin 16 μM, exogenous ATP 3 mM
# Description: FIGS. 5A-5E. CaMKII-independent P2X7-mediated killing. FIG. 5A: qPCR showing the extent of gene knockdown in 4T1.2 cells transfected with shRNA targeting the P2X7 receptor versus non-targeting (NT) control (left panel). […] One million wt, shRNA(NT) and shRNA(P2X7) 4T1.2 cells were plated and incubated for 48 h before evaluation of cell numbers and viability. FIG. 5B: P2X7 knockdown cells are more resistant to ATP and the ATP/IVM combo. 4T1.2 cells were treated for 24 h with 1-3 mM ATP, 6-10 μM Ivermectin, or combinations of ATP and Ivermectin. P2X7 knockdown suppresses the synergy between Ivermectin and high dose ATP, as shown by calculation of combination index (CI) values, see Table 2. FIG. 5C: P2X7 knockdown cells are resistant to ATP/Ivermectin induced membrane permeabilization (Asterisk (*) indicates p<0.05). […] FIG. 5E: Comparison of the protective effects of P2X7, CaMKII, and NADPH oxidases inhibition in short-term (4 h, 32 μM IVM) and long-term (24 h, 12 μM IVM) exposure of 4T1.2 cells to Ivermectin. Asterisk (*) indicates p<0.05 relative to Ivermectin alone controls.
# Cell viability. […] Following treatment the plates were washed once with PBS and cell viability was measured using the acid phosphatase assay. […] Absorption at 405 nm was measured within 10 min using a multi-well plate reader. Mode of cell death and viability of cells in suspension was evaluated using flow cytometry. […]
smiles,measurement,setting,value
CC[C@H](C)[C@H]1O[C@]2(CC[C@@H]1C)C[C@@H]1C[C@@H](C/C=C(\C)[C@@H](O[C@H]3C[C@H](OC)[C@@H](O[C@H]4C[C@H](OC)[C@@H](O)[C@H](C)O4)[C@H](C)O3)[C@@H](C)/C=C/C=C3\CO[C@@H]4[C@H](O)C(C)=C[C@@H](C(=O)O1)[C@]34O)O2 [Ivermectin],Ivermectin doses giving rapid killing,[1],≥ 8 µM
same,surface exposure of Calreticulin (CRT),"[2]; 4T1.2 and MB231 cells, 4-24 h",does not significantly impact surface CRT
same,plasma membrane exposure of M6P receptors,"[2]; MDA-MB-231 cells, up to 24 h",up-regulate plasma membrane exposure of mannose-6-phosphate (M6P) receptors
same,killing by combination of Ivermectin and ATP,[3],synergistically kill

# From patent US11058700B2, “Macrocyclic lactones and uses thereof as modulators of purinergic receptors” (City of Hope, priority 2015, dated 2021)
